According to patent US9243035B2, “Peptides effective in the treatment of conditions requiring the removal or destruction of cells” (NYMOX CORPORATION, priority 2013, dated 2016):
No end group written: not given here.

Experiments:
[1] = tested on: rat prostate; assay: Intraprostatic infusion of peptide in rats, histology and prostate volume after 7 days; format: in vivo, Sprague-Dawley rats; parameters: key to Histological Changes of Cell Death at 7 Days: −: Absent; +: Present, Minimal; ++: Present, Moderate; +++: Present, Moderate and Diffuse; ++++: Present, Diffuse and Extensive; conditions: for histological effect on prostate at sites of injection: rat prostate, 7 days; for Histological Changes of Cell Death at 7 Days / reduction in prostate volume compared to controls: rat; for Histological Changes of Cell Death at 7 Days: 7 days after intraprostatic injection; for reduction in prostate volume compared to controls: intraprostatic, 300 μl of 1 mg/mL in PBS pH 7.4, sacrificed after 7 days, average
Description: Seven normal male 300 gram weight Sprague-Dawley rats were given general anesthesia and given peptide NYMAP1385 by intraprostatic infusion. The injections consisted of 300 μl of peptide NYMAP1385 1 mg/mL in PBS pH 7.4. […] Rats were painlessly sacrificed after 7 days. Prostate glands were dissected, fixed in 10% buffered formalin for 24 hours, embedded in paraffin, sectioned, and stained with H & E. For each animal the entire prostate gland was embedded and sectioned. All stained sections were examined histologically. For each animal the entire prostate gland was embedded and sectioned. All stained sections were examined histologically and measured. For each prostate at least 2 histological sections were examined, and for each histological section two cross-sectional diameters (D) at 90° from each other were measured (total of ≧4 measurements per prostate). The mean diameter from these measurements for each prostate was used to estimate volume according to V=4/3*π*(D/2)^3
Eight normal male 300 gram Sprague-Dawley rats were injected in the prostate as in the above Example 2, except they were injected with peptide NYMAP13134. Rats were painlessly sacrificed after 7 days and their prostate glands were examined as in Example 2. For each animal the entire prostate gland was embedded and sectioned. All stained sections were examined histologically and measured. For each prostate at least 2 histological sections were examined, and for each histological section two cross-sectional diameters (D) at 90° from each other were measured (total of ≧4 measurements per prostate). The mean diameter from these measurements for each prostate was used to estimate volume according to V=4/3*π*(D/2)^3
(§1) Histological changes were assessed on the following scale: −Absent • +Present, Minimal • ++Present, Moderate • +++Present, Moderate and Diffuse • ++++Present, Diffuse and Extensive

[2] = tested on: tissue at sites of injection (liver, prostate, extremity skeletal muscle); assay: Injection of peptide into liver, prostate and extremity skeletal muscle of rats, histopathology and prostate volume at 72 hours; format: in vivo, Sprague-Dawley male rats; parameters: key to Histological Changes of Cell Death at 72 Hours: −: Absent; +: Present, Minimal; ++: Present, Moderate; +++: Present, Moderate and Diffuse; ++++: Present, Diffuse and Extensive; conditions: rat; for reduction in prostate volume compared to controls: 100 to 400 μL of 1 mg/mL in saline, sacrificed at 72 hours, average; for Histological Changes of Cell Death at 72 Hours: 72 hours after injection; for histopathological effect on tissue at sites of injection: liver, prostate, muscle, 72 hours
Description: After open laparotomy under general anesthesia, 8 normal 3 month old Sprague-Dawley male rats were injected in liver and in prostate, and in extremity skeletal muscle, with peptide NYMAP1385 in saline in quantities of 100 to 400 μL at a concentration of 1 mg/mL delivered from plastic syringes through stainless steel 26 gauge needles.
The individual foci of infiltration were excised, fixed in 10% formalin, embedded in paraffin, and stained and examined by standard histopathological methods. For each animal the entire prostate gland was embedded and sectioned. All stained sections were examined histologically and measured. For each prostate at least 4 histological sections were examined, and for each histological section two cross-sectional diameters (D) at 90° from each other were measured (total of ≧4 measurements per prostate). The mean diameter from these measurements for each prostate was used to estimate volume according to V=4/3*π(D/2)^3 […]
as §1

| Sequence | histological effect on prostate at sites of injection [1] | Histological Changes of Cell Death at 7 Days [1] | reduction in prostate volume compared to controls [1] [%] | reduction in prostate volume compared to controls [2] [%] | Histological Changes of Cell Death at 72 Hours [2] | histopathological effect on tissue at sites of injection [2] |
| --- | --- | --- | --- | --- | --- | --- |
| FHDLKKHCIK [NYMAP13134] | significant cell loss and atrophy in the prostate | ++++ | 75.2 | 72.5 | +++ | cell death and necrosis of tissue at the injection sites |
| IDLLQGRTRNRC [NYMAP1385] | necrosis of tissue at the injection sites with loss of glandular epithelium, flattening and atrophy | ++ | 44.8 | 57.8 | ++++ | variable amounts of apoptosis and necrosis of tissue at the injection sites |
